Data set [1] has as its system Plasmodium falciparum. In words: Antimalarial activity against Plasmodium falciparum CsI-2 harboring DHFR C59R/S108N/I164L mutant infected in human erythrocytes assessed as reduction in [3H]-hypoxanthine incorporation pretreated for 20 hrs followed by [3H]-hypoxanthine addition measured after 20 hrs by radioactivity method. Type of data set: functional, organism-based. The conditions noted are these: CsI-2, Erythrocyte.

Data set [2] deals with Plasmodium falciparum. In words: Antimalarial activity against Plasmodium falciparum T9/94 RC17 harboring DHFR A16V/S108T mutant infected in human erythrocytes assessed as reduction in [3H]-hypoxanthine incorporation pretreated for 20 hrs followed by [3H]-hypoxanthine addition measured after 20 hrs by radioactivity method. It is filed as functional, organism-based. The conditions noted are these: T9/94 RC17, Erythrocyte.

A short description of data set [3]: Inhibition of Plasmodium falciparum DHFR A16V/S108T mutant expressed in Escherichia coli BL21 using DHF as substrate by spectrophotometric analysis.
The test system of data set [4] is DHFR (human against Plasmodium falciparum DHFR double mutant). In words: Selectivity index, ratio of Ki for human DHFR expressed in Escherichia coli BL21 to Ki for Plasmodium falciparum DHFR double mutant expressed in Escherichia coli BL21. It is filed as toxicity. The conditions noted are these: read-out: Ratio Ki.
The nature of data set [5]: Inhibition of Plasmodium falciparum DHFR C59R/S108N/I164L mutant expressed in Escherichia coli BL21 using DHF as substrate by spectrophotometric analysis.
Data set [6] relates to Plasmodium falciparum. In words: Antimalarial activity against Plasmodium falciparum W2 harboring DHFR N51I/C59R/S108N mutant infected in human erythrocytes assessed as reduction in [3H]-hypoxanthine incorporation pretreated for 20 hrs followed by [3H]-hypoxanthine addition measured after 20 hrs by radioactivity method. Type of data set: functional, organism-based. The conditions noted are these: W2, Erythrocyte.

Data set [7] can be described thus: Therapeutic index, ratio of IC50 for African green monkey Vero cells to IC50 for Plasmodium falciparum V1/S harboring DHFR N51I/C59R/S108N/I164L mutant. Type of data set: toxicity. The note with it: read-out: Ratio IC50.
Data set [8] in a line: Therapeutic index, ratio of IC50 for African green monkey Vero cells to IC50 for Plasmodium falciparum TM4/8.2. Type of data set: toxicity. The conditions noted are these: against Plasmodium falciparum TM4/8.2, read-out: Ratio IC50.
Data set [9] in a line: Inhibition of Plasmodium falciparum DHFR N51I/C59R/S108N/I164L mutant expressed in Escherichia coli BL21 using DHF as substrate by spectrophotometric analysis.
In a further data set the test system is Vero. In words: Cytotoxicity against African green monkey Vero cells assessed as reduction in cell viability incubated for 72 hrs by SRB assay. Type of data set: cell-based. The conditions noted are these: Chlorocebus sabaeus. A general note: Sulforhodamine B stains cellular protein and so reports cell mass.
Data set [10] has as its system Plasmodium falciparum. In words: Antimalarial activity against Plasmodium falciparum TM4/8.2 infected in human erythrocytes assessed as reduction in [3H]-hypoxanthine incorporation pretreated for 20 hrs followed by [3H]-hypoxanthine addition measured after 20 hrs by radioactivity method. It is filed as functional, organism-based.
Data set [11] is described as follows: Inhibition of Plasmodium falciparum DHFR […] mutant expressed in Escherichia coli BL21 using DHF as substrate by spectrophotometric analysis.
The test system of data set [12] is Plasmodium falciparum. In words: Antimalarial activity against Plasmodium falciparum V1/S harboring DHFR N51I/C59R/S108N/I164L mutant infected in human erythrocytes assessed as reduction in [3H]-hypoxanthine incorporation pretreated for 20 hrs followed by [3H]-hypoxanthine addition measured after 20 hrs by radioactivity method. It is filed as functional, organism-based. The conditions noted are these: Erythrocyte.

Data set [13] deals with DHFR (human against Plasmodium falciparum DHFR). In words: Selectivity index, ratio of Ki for human DHFR expressed in Escherichia coli BL21 to Ki for Plasmodium falciparum DHFR expressed in Escherichia coli BL21. It is filed as toxicity. The note with it: read-out: Ratio Ki.
A short description of data set [14]: Therapeutic index, ratio of IC50 for African green monkey Vero cells to IC50 for Plasmodium falciparum K1CB1 harboring DHFR […] mutant. Type of data set: toxicity. The note with it: read-out: Ratio IC50.
The nature of data set [15]: Inhibition of Plasmodium falciparum DHFR expressed in Escherichia coli BL21 using DHF as substrate by spectrophotometric analysis.
Data set [16] relates to Plasmodium falciparum. In words: Antimalarial activity against Plasmodium falciparum K1CB1 harboring DHFR […] mutant infected in human erythrocytes assessed as reduction in [3H]-hypoxanthine incorporation pretreated for 20 hrs followed by [3H]-hypoxanthine addition measured after 20 hrs by radioactivity method. It is filed as functional, organism-based. The conditions noted are these: K1CB1, Erythrocyte.

For data set [17], the system named is DHFR (human against Plasmodium falciparum DHFR N51I/C59R/S108N/I164L mutant). In words: Selectivity index, ratio of Ki for human DHFR expressed in Escherichia coli BL21 to Ki for Plasmodium falciparum DHFR N51I/C59R/S108N/I164L mutant expressed in Escherichia coli BL21. It is filed as toxicity. The conditions noted are these: read-out: Ratio Ki.
Data set [18] can be described thus: Inhibition of Plasmodium falciparum DHFR N51I/C59R/S108N mutant expressed in Escherichia coli BL21 using DHF as substrate by spectrophotometric analysis.

In the case of `CC1(C)N=C(N)N=C(N)N1OCCCOc1ccc(Cl)cc1`, the IC50 with Plasmodium falciparum [1] worked out at 3.9 nM; in the data set with Plasmodium falciparum [2], 0.24 nM; in the data set on Plasmodium falciparum [6] it was 2.1 nM; with Vero, 170 nM; in the data set on Plasmodium falciparum [10] it was 0.28 nM; in the data set with Plasmodium falciparum [12] it was 23 nM. Also, the IC50 with Plasmodium falciparum [16] was determined as 1.9 nM. Moreover, the Ki in data set [3] worked out at 1.2 nM; in data set [5], 0.9 nM; in data set [9], 1 nM; in data set [11], 0.9 nM; in data set [15], 0.6 nM. The selectivity ratio came out at 32 in data set [4]; 7 in data set [7]; 607 in data set [8]; 49 in [13]; 89 in [14]; 29 in [17].

`CC1(C)N=C(N)N=C(N)N1OCCCSc1cccc(Cl)c1`: the IC50 in the data set on Plasmodium falciparum [1] came to 42 nM; in the data set with Plasmodium falciparum [2], 2.4 nM; in the data set with Plasmodium falciparum [6], 8.1 nM; with Vero, 3900 nM; with Plasmodium falciparum [10], 1.3 nM; in the data set on Plasmodium falciparum [12], 77 nM. The IC50 in the data set with Plasmodium falciparum [16] is 5.5 nM. The Ki in data set [3] came to 3.4 nM; in [5], 0.9 nM; in data set [9], 1 nM; in data set [11], 0.8 nM; in [15], 0.7 nM. Moreover, the selectivity ratio stood at 30 in data set [4]; 51 in data set [7]; 3000 in data set [8]; 34 in data set [13]; 709 in data set [14]; 24 in [17].

Take `CC1(C)N=C(N)N=C(N)N1OCCCOc1ccc(F)cc1Cl`: the IC50 was determined as 3.1 nM in the data set with Plasmodium falciparum [1]; 0.28 nM in the data set with Plasmodium falciparum [2]; 0.24 nM with Plasmodium falciparum [6]; 21400 nM in the data set with Vero; 0.034 nM in the data set on Plasmodium falciparum [10]; 3 nM with Plasmodium falciparum [12]. For the same compound, the IC50 with Plasmodium falciparum [16] turned out to be 0.26 nM. For the same compound, the Ki stood at 1.8 nM in data set [3]; 0.9 nM in data set [5]; 1.2 nM in data set [9]; 0.9 nM in data set [11]; 0.4 nM in data set [15]. The selectivity ratio in data set [4] was 42; in data set [7] it was 7130; in [8], 629000; in [13], 94; in data set [14], 82300; in [17] it was 31.

For the compound `CN(CCCON1C(N)=NC(N)=NC1(C)C)c1ccc(Cl)cc1`, the IC50 with Plasmodium falciparum [1] was determined as 170 nM; with Plasmodium falciparum [2], 3.2 nM; with Plasmodium falciparum [6], 24 nM; in the data set with Vero, 45000 nM; in the data set with Plasmodium falciparum [10] it was 1.7 nM; with Plasmodium falciparum [12], 420 nM. For the same compound, the IC50 with Plasmodium falciparum [16] was found to be 49 nM. Besides, the Ki in data set [3] worked out at 3.4 nM; in data set [5] it was 2 nM; in [9], 3.4 nM; in data set [11] it was 1.4 nM; in [15], 1.5 nM. Also, the selectivity ratio in data set [4] worked out at 24; in data set [7], 107; in [8], 26500; in [13], 22; in data set [14] it was 918; in data set [17], 10.

On to `Cc1ccc(C)c(NCCCON2C(N)=NC(N)=NC2(C)C)c1`, for which the IC50 in the data set with Plasmodium falciparum [1] is 310 nM; in the data set with Plasmodium falciparum [6] it was 43 nM; with Vero it was greater than 50000 nM; in the data set on Plasmodium falciparum [10], 26 nM; in the data set on Plasmodium falciparum [12] it was 350 nM; in the data set on Plasmodium falciparum [16], 100 nM. Besides, the Ki came out at 4.1 nM in data set [3]; 1.5 nM in data set [5]; 1.4 nM in data set [18]; 3.8 nM in [9]; 1.1 nM in [11]; 0.8 nM in [15]. The selectivity ratio in data set [4] was 113; in [7] it was greater than 143; in data set [8], greater than 1920; in [13], 155; in [14], greater than 500; in data set [17] it was 33.

For the compound `CC1(C)N=C(N)N=C(N)N1OCCSc1ccc(Cl)cc1`, the IC50 in the data set on Plasmodium falciparum [1] amounted to 32 nM; in the data set on Plasmodium falciparum [6], 24 nM; in the data set on Vero, 14000 nM; with Plasmodium falciparum [10], 3.5 nM; in the data set on Plasmodium falciparum [12], 540 nM; in the data set with Plasmodium falciparum [16] it was 37 nM. The inhibition constant Ki in [3] came to 1.5 nM; in [5] it was 1.8 nM; in data set [18] it was 0.8 nM; in data set [9] it was 3 nM; in data set [11], 0.8 nM; in data set [15], 0.3 nM. The selectivity ratio in data set [4] was 32; in data set [7], 26; in data set [8] it was 4000; in data set [13], 84; in data set [14] it was 378; in data set [17], 8.

For `CC1(C)N=C(N)N=C(N)N1OCCCc1ccccc1`, the IC50 in the data set on Plasmodium falciparum [1] was 250 nM; with Plasmodium falciparum [6], 39 nM; in the data set with Vero, 7100 nM; with Plasmodium falciparum [10] it was 9.2 nM; with Plasmodium falciparum [12], 90 nM; with Plasmodium falciparum [16] it was 22 nM. The Ki in [3] was determined as 3.1 nM; in data set [5], 2.8 nM; in [18], 1.2 nM; in [9], 5 nM; in data set [11], 1.3 nM; in data set [15], 1.1 nM. For the same compound, the selectivity ratio in [4] turned out to be 30; in [7], 79; in [8], 772; in [13] it was 36; in [14] it was 323; in data set [17], 8.

With `CC1(C)NC(N)=NC(=N)N1OCCCCOc1ccccc1`, the IC50 in the data set with Plasmodium falciparum [1] was 220 nM; in the data set on Plasmodium falciparum [6], 46 nM; in the data set with Vero it was 9800 nM; in the data set with Plasmodium falciparum [10], 2.9 nM; in the data set with Plasmodium falciparum [12] it was 220 nM; with Plasmodium falciparum [16], 33 nM. For the same compound, the Ki in [3] turned out to be 3.2 nM; in data set [5], 1.7 nM; in [18], 1.6 nM; in [9], 2 nM; in data set [11] it was 1.3 nM; in data set [15], 0.8 nM. The selectivity ratio in data set [4] was determined as 35; in [7] it was 45; in data set [8], 3380; in data set [13], 57; in data set [14], 297; in data set [17], 23.

Consider `CC1N=C(N)N=C(N)N1OCCCOc1ccc(Cl)cc1` (stereo not given), for which the IC50 in the data set on Plasmodium falciparum [1] is 380 nM; in the data set with Plasmodium falciparum [6], 120 nM; in the data set on Vero it was greater than 50000 nM; in the data set on Plasmodium falciparum [10], 30 nM; with Plasmodium falciparum [12], 820 nM; with Plasmodium falciparum [16], 29 nM. The Ki in data set [3] came to 1.9 nM; in data set [5] it was 1.4 nM; in data set [18], 0.9 nM; in data set [9], 1.8 nM; in [11], 0.7 nM; in [15], 0.4 nM. Besides, the selectivity ratio is 166 in data set [4]; greater than 61 in [7]; greater than 1670 in [8]; 290 in data set [13]; greater than 1720 in [14]; 64 in data set [17].

For `CC1N=C(N)N=C(N)N1OCCCOc1cccc(Cl)c1Cl` (stereo not given), the IC50 stood at 62 nM in the data set on Plasmodium falciparum [1]; 150 nM with Plasmodium falciparum [6]; 5910 nM in the data set on Vero; 1.3 nM with Plasmodium falciparum [10]; 210 nM in the data set on Plasmodium falciparum [12]; 5.9 nM in the data set with Plasmodium falciparum [16]. The Ki was 1.8 nM in [3]; 1.2 nM in data set [5]; 0.6 nM in data set [18]; 1.2 nM in [9]; 0.6 nM in data set [11]; 0.4 nM in data set [15]. Further, the selectivity ratio in [4] is 33; in data set [7] it was 28; in [8], 4550; in data set [13] it was 49; in data set [14], 1000; in data set [17], 16.

By IC50 is commonly meant the point on the concentration scale where inhibition reaches its midpoint. As a reminder, the Ki is the dissociation constant of the complex between target and ligand, obtained from inhibition or displacement.

The record behind these values is ChEMBL document CHEMBL4765292, “Flexible diaminodihydrotriazine inhibitors of Plasmodium falciparum dihydrofolate reductase: Binding strengths, modes of binding and their antimalarial activities” (Eur J Med Chem, 2020).
